Assay results reported in publication PMC12810539, “EGFR-targeted gadolinium contrast agents for enhanced molecular magnetic resonance imaging of tumors” (The Journal of Biological Chemistry, 2025).

What was measured:
A549 cells = assay: Cellular Gd content after incubation (cell binding assay, ICP-MS); type: cell-based, human; settings: A549, 50 μM Gd, 37 °C, mean ± SD (n = 6)
Method: (§1) The binding of EBP-Gd-DO3A and EBP-(Gd-DO3A)3 to the receptor on MDA-MB-231, A549, SGC-7901, SW480, and U138 MG cells was compared with that of Gadovist. The cells were seeded into 100 mm × 20 mm cell culture dishes at a density of approximately 1 × 10^6 cells per dish and incubated with EBP-Gd-DO3A, EBP-(Gd-DO3A)3 or Gadovist at a Gd concentration of 50 μM for 1 h or 12 h at 37 °C. After incubation, the cells were washed once with PBS followed by mild acidic buffer (50 mM glycine, 150 mM NaCl (pH 3.0)) at 4 °C for 5 min. Then, the cells were washed twice with PBS, and the cellular Gd content was measured by ICP-MS.
(§2) Cells were seeded into 100 mm×20 mm cell culture dishes at a density of approximately 1×10^6 cells per dish and incubated with EBP-Gd-DO3A, EBP-(Gd-DO3A)3 or Gadovist® at Gd concentrations of 50 μM at 37°C for the indicated time points. The Gd content in the cell lysates was quantified by ICP-MS. The values are presented as the mean ± SD (n = 6).

MDA-MB-231 cells = assay: as above; type: cell-based, human; settings: MDA-MB-231 (EGFR-overexpressing), 50 μM Gd, 37 °C, mean ± SD (n = 6)
Method: as §1, §2

SGC-7901 cells = assay: as above; type: cell-based, human; settings: SGC-7901, 50 μM Gd, 37 °C, mean ± SD (n = 6)
Method: as §1, §2

SW480 cells = assay: as above; type: cell-based, human; settings: SW480, 50 μM Gd, 37 °C, mean ± SD (n = 6)
Method: as §1, §2

U138MG cells = assay: as above; type: cell-based, human; settings: U138MG (non-EGFR-overexpressing), 50 μM Gd, 37 °C, mean ± SD (n = 6)
Method: as §1, §2

[1] = Longitudinal and transverse relaxivity at 3T MRI; type: physicochemical; settings: in water, 37 °C, slope of 1/T1 versus Gd concentration (0-0.5 mM)
Method: The EBP-Gd-DO3A and EBP-(Gd-DO3A)3 conjugates were confirmed by matrix-assisted laser desorption/ionization time-of-flight (MALDI-TOF) mass spectrometry (Applied Biosystems) in a linear mode with 2,5-dihydroxybenzoic acid (2,5-DHB) as the matrix. The Gd content in the conjugates was determined by ICP-MS (Thermo Fisher Scientific) ([31]). […] Serial dilutions of EBP-Gd-DO3A, EBP-(Gd-DO3A)3, and Gadovist were prepared in water at Gd concentrations of 0.5, 0.25, 0.125, 0.0625, 0.03125, and 0 mM. The relaxivity measurements were performed on a 3T MRI scanner (Trio, Siemens). T1 was measured using an inversion recovery method with a variable inversion time ranging from 50 to 1750 ms. T2 was measured using a Carr-Purcell-Meiboom-Gill sequence with 500 echoes collected. The relaxivities (r1 and r2) of the agents were calculated from the slopes of the plots of 1/T1 and 1/T2 versus the Gd concentrations.

EGFR = target: T1, EGFR (Homo sapiens, UniProt P00533); assay: EGFR inhibition assay (competitive cell binding with anti-EGFR antibody C225); type: cell-based; settings: all tested cell lines, 5 μg/ml C225 preincubation 12 h, then 50 μM Gd for 1 h, ICP-MS
T1 construct: endogenous in cells; host or cells: MDA-MB-231, A549, SGC-7901, SW480, U138 MG (human tumour cell lines, CCTCC)
Method: To further verify the receptor-binding affinity and specificity of EBP-Gd-DO3A and EBP-(Gd-DO3A)3, a competitive cell-binding assay was carried out. MDA-MB-231, A549, SGC-7901, SW480, and U138 MG cells were preincubated with fresh serum-free medium containing 5 μg/ml anti-EGFR monoclonal antibody C225 (ImClone Systems, Inc., New York, NY) for 12 h at 37 °C. The culture supernatant was removed from the resulting solution, followed by the addition of EBP-Gd-DO3A, EBP-(Gd-DO3A)3, or Gadovist at a Gd concentration of 50 μM for the indicated time points. The cellular Gd content was measured by ICP-MS as described above, and the C225-induced reduction in the cellular Gd accumulation was used to calculate an inhibition index of cellular Gd uptake ([34]).

[2] = In vivo biodistribution: plasma, kidney, liver, heart (ICP-MS); parameters: species or system SCID mice; settings: for Gd content in the kidneys / plasma Gd level over time: tumor-bearing SCID mice, ICP-MS; for Gd content in the kidneys: mean ± SD, 6 animals per group; for plasma Gd level over time: 0.25-48 h
Method: (§3) The 6- to 8-week-old male non-obese diabetic (NOD)/severe-combined immunodeficient (SCID) mice were used to establish MDA-MB-231 (EGFR-overexpressing) and U138 MG (non-EGFR-overexpressing) xenograft models ([35]). The mice were obtained from the Experimental Animal Center of Tongji Medical College, Huazhong University of Science and Technology, and all the experimental procedures involving animals were further approved by the Animal Care and Use Committee of Huazhong University of Science and Technology. The mice were housed separately in polycarbonate cages and provided with food and water. Tumors were grown under the skin by s.c. injection of 1 × 10^6-3 × 10^6 cells. The mice were randomized into groups for the biodistribution assay and MR imaging in vivo when the xenografts reached 5 to 7 mm in diameter. All procedures were approved by the Institutional Animal Care and Use Committee of Huazhong University of Science and Technology (approval no.270193).
(§4) The tumor-bearing SCID mice were randomly divided into groups, with 6 animals in each group, an injected via the tail vein with 50 μM Gd/kg EBP-Gd-DO3A, EBP-(Gd-DO3A)3, or Gadovist. At the selected time points (0.25, 0.5, 1, 2, 4, 8, 24, and 48 h) after injection, blood was collected and centrifuged to separate the plasma. Then, organ and tissue samples, including the kidneys, liver, heart, and tumor, were collected and weighed. The tissue samples were liquefied for 1 week and then transferred into centrifuge tubes and centrifuged at 14,000 rpm for 5 min. The resulting supernatants were diluted tenfold with deionized water and centrifuged again under the same conditions. The Gd concentration in the samples was measured by ICP-MS ([36]).

[3] = tested on: MDA-MB-231 tumor xenografts; assay: In vivo biodistribution: tumor Gd content (ICP-MS); settings: SCID mice, mean ± SD; for Gd content in the MDA-MB-231 tumor tissues (peak): 4 h after single i.v. 50 μM Gd/kg
Method: as §3, §4

[4] = 0.5 h after single i.v. 50 μM Gd/kg
[5] = 2 h after single i.v. 50 μM Gd/kg
[6] = 24 h after single i.v. 50 μM Gd/kg

Molecule | Concentration of cellular Gd (A549 cells; 1 h) | Concentration of cellular Gd (A549 cells; 12 h) | Concentration of cellular Gd (MDA-MB-231 cells; 1 h) | Concentration of cellular Gd (MDA-MB-231 cells; 12 h) | Concentration of cellular Gd (SGC-7901 cells; 1 h) | Concentration of cellular Gd (SGC-7901 cells; 12 h) | Concentration of cellular Gd (SW480 cells; 1 h) | Concentration of cellular Gd (SW480 cells; 12 h) | Concentration of cellular Gd (U138MG cells; 1 h) | Concentration of cellular Gd (U138MG cells; 12 h) | longitudinal relaxivity (r1) [1] | cellular Gd accumulation with versus without C225 pretreatment (EGFR) | Gd content in the kidneys [2, 5] | Gd content in the kidneys [2, 6] | plasma Gd level over time ([2]; single i.v. 50 μM Gd/kg) | Gd content in the MDA-MB-231 tumor tissues [3, 6] | Gd content in the MDA-MB-231 tumor tissues (peak) [3] | other results
O=C([O-])CN1CCN(CC(=O)[O-])CCN([C@H](CO)[C@H](O)CO)CCN(CC(=O)[O-])CC1.[Gd+3] (racemic) [Gadovist, reference compound] | 0.25± 0.05 μM/10^6 cells | 0.18 ± 0.04 μM/10^6 cells | 0.18 ± 0.06 μM/10^6 cells | 0.13 ± 0.02 μM/10^6 cells | 0.15 ± 0.05 μM/10^6 cells | 0.16 ± 0.03 μM/10^6 cells | 0.19 ± 0.07 μM/10^6 cells | 0.20 ± 0.07 μM/10^6 cells | 0.20 ± 0.04 μM/10^6 cells | 0.24 ± 0.05 μM/10^6 cells | 3.14 mM⁻¹ s⁻¹ | No significant difference | 8.73 ± 1.37 nM/g tissue | 1.58 ± 0.72 nM/g tissue | rapidly disappeared from circulation | no detectable Gd | – | Gd content in the kidneys [2, 4]: 10.70 ± 2.10 nM/g tissue; Gd retention in the liver and heart ([2]; single i.v. 50 μM Gd/kg, compared with EBP-Gd-DO3A and EBP-(Gd-DO3A)3, ICP-MS): relatively high at all time points; Gd content in the MDA-MB-231 tumor tissues [3, 4]: 3.36 ± 0.91 nM/g tissue; Gd content in the MDA-MB-231 tumor tissues [3, 5]: 1.26 ± 0.46 nM/g tissue
CMYIEALDKYAC [EBP-(Gd-DO3A)3] | 1.04 ± 0.06 μM/10^6 cells | 2.66 ± 0.15 μM/10^6 cells | 1.17 ± 0.12 μM/10^6 cells | 2.79 ± 0.18 μM/10^6 cells | 1.01± 0.08 μM/10^6 cells | 2.31 ± 0.14 μM/10^6 cells | 1.05 ± 0.09 μM/10^6 cells | 2.65 ± 0.11 μM/10^6 cells | 0.15 ± 0.04 μM/10^6 cells | 0.74 ± 0.17 μM/10^6 cells | 7.24 mM⁻¹ s⁻¹ | reduced | 12.40 ± 1.60 nM/g tissue | 3.50 ± 1.40 nM/g tissue | maintained at a high level for a much longer time | 19.42 ± 1.76 nM/g tissue | 30.70 ± 1.90 nM/g tissue | Gd content in the kidneys ([2]; 8 h after single i.v. 50 μM Gd/kg): 8.12 ± 1.28 nM/g tissue
CMYIEALDKYAC [EBP-Gd-DO3A] | 0.37 ± 0.07 μM/10^6 cells | 1.24 ± 0.19 μM/10^6 cells | 0.43 ± 0.05 μM/10^6 cells | 1.16 ± 0.10 μM/10^6 cells | 0.35 ± 0.04 μM/10^6 cells | 1.12 ± 0.16 μM/10^6 cells | 0.31 ± 0.06 μM/10^6 cells | 1.01 ± 0.13 μM/10^6 cells | 0.09 ± 0.01 μM/10^6 cells | 0.25 ± 0.07 μM/10^6 cells | 5.08 mM⁻¹ s⁻¹ | reduced | 10.76 ± 1.14 nM/g tissue | 2.52 ± 0.68 nM/g tissue | maintained at a high level for a much longer time | 9.95 ± 1.85 nM/g tissue | 17.70 ± 2.10 nM/g tissue | Gd content in the kidneys ([2]; 4 h after single i.v. 50 μM Gd/kg): 8.25 ± 0.75 nM/g tissue
